In patent publication US20130004581A1, “CONTROLLING UPTAKE BY CELLS” (Ramot at Tel-Aviv University Ltd., priority 2010, published 2013):

Key:
COS 5-7 cells [1] = test: Proton induced uptake (PIU) in adherent COS 5-7 cultures, 5 minutes, FACS; assay type: cell-based, African green monkey; details: pH 5, P<0.001
From the text: Uptake, based on flow cytometry, is plotted as function of the external pH from 3 independent experiments per cell line.
FIG. 1A is shown the Extent of uptake in terms of FITC intensity geometrical mean±SD is presented as fold induction relative to the constitutive uptake at physiological pH 7.4. In FIG. 1B is shown the PI (a necrotic cell marker) stained cells fraction±SD (%) relative to unexposed control population. In FIG. 1C is shown the FITC geometrical mean±SD presented as fold induction relative to the constitutive uptake at physiological pH 7.4.

Caco2/TC7 cells = test: Proton induced uptake (PIU) in Caco2/TC7 cells, FACS; assay type: cell-based; details: pH 5; 5 minutes; P<0.001
Method: Caco-2 cells were cultivated, and were harvested when reaching 80% confluence by the use of trypsin-EDTA. The cell suspensions were immediately diluted in full medium (DMEM with 4.5 mg/ml glucose, 10% FCS), centrifuged and re-suspended in recovery medium (HBSS or PBS).
Once exposure is terminated the suspension is transferred to a small vial where it is either incubated at 37° C. or immediately cooled down to 4° C. All samples are collected together on ice and then simultaneously analyzed.
Acidification is imposed by supplementing the suspension with 10 mM MES buffer and the concentrations of HCl required for reaching the experimental pH level.
The cells are washed by being centrifuged, re-suspended with fresh DMEM (without phenol-red or FCS), incubated at room temperature with probe specific digestive enzymes, where appropriate, centrifuged and washed again.
For FACS analysis, Trypan-blue (0.01%) and PI (2 μg/ml) are added to the cells suspension to quench residual extracellular fluorescence and stain necrotic cells, respectively.

HaCaT cells = test: Proton induced uptake (PIU) in HaCaT cells, FACS; assay type: cell-based, human; details: pH 5.25; pulse label for last 5 minutes
Method: FIG. 6 is a chart showing PIU of molecules different by size and charge, in accordance with some embodiments of the invention. Hacat cultures were exposed to solutions of pH 5.2 or pH 7.4 for 5 minutes period, in the presence of different fluorescence molecules (All at 25 μM concentration). FACS analysis results (FL1, geometrical mean±SD) for the cell cultures exposed to pH 5.2 are presented as fold induction relative to results obtained for cells exposed to pH 7.4. This can be used, in some embodiments of the invention, to assess effect of molecule size and charge on uptake.
FIGS. 7A-7B are charts showing the comparison of PIU in adherent and suspended HaCaT cells, in accordance with some embodiments of the invention. For FIG. 7A, HaCaT cells were tested either at their adherent state, or following harvest at a suspended state. […] FACS analyses (FL1) in terms of geometrical mean±SD are presented as fold induction relative to the constitutive uptake at physiological pH 7.4. n=9 in 3 independent experiments. For FIG. 7B, HaCaT Cells were cultivated at low, medium or high cell density. […] The cultures were harvested and undergone FACS analyses (FL1) in terms of geometrical mean±SD and are presented as fold induction relative to the constitutive uptake of low density cultures. Statistical significance was tested against the confluent culture, n=9 in 3 independent experiments. In the charts, * indicates a t-test p<0.05; and ** indicates a t-test p<0.01. This can be used, in some embodiments of the invention, to assess effect of cell membrane rigidity and/or tissue structure on uptake.
FIGS. 12A-12B are a chart and images which show the relative change of PIU by modifiers of actin cytoskeleton organization, in accordance with some embodiments of the invention. […].

COS 5-7 cells [2] = test: Uptake after one minute of electric pulse train (EPT) in three-compartment device, FACS; assay type: cell-based, African green monkey; details: for Folds Uptake mean: electric field 200 mA/cm^2; for Folds Uptake mean / Folds Uptake Fold: 1 min, 10 μM Dextran-FITC; for Folds Uptake Fold: relative to unexposed cells
Method: The values in the tables are shown as folds relative to the uptake in cells unexposed to any of the treatments.
Exposure of cells to low-intensity trains of unipolar rectangular voltage pulses was carried in a three-compartment exposure set-up where the anode and cathode were connected to an electric pulse generator (Grass S44 Stimulator). The exposure set-up consisted of a rectangular chamber made from polystyrene, 15 mm long, 10 mm wide, with 0.5 cm^2 area platinum electrodes positioned on the extreme sides (see FIG. 15). The chamber is divided by two porous membranes (PolyEtherSulfon, 0.8 μm pores, 200 μm depth), into three distinct and equal compartments: anode, cathode and center ones. The electric field parameters applied were monitored on line by recording the voltage and the current (by means of a wide band current probe, Pearson) on an oscilloscope. Typically, a cell suspension (1*10^6 cells/ml) is exposed to a train of electric pulses consisting of unipolar rectangular pulses with duration of 180 μs, frequency of 500 Hz for the total time of exposure of one minute.
Cells (COS 5-7) were harvested, re-suspended in DMEM (1 mg/ml glucose, 5% FCS), and incubated (37°, 5% CO2) as designated by the experiment. For uploading the cells with either H2DCF-DA (20 μM) or Bis-DHA (1 mM) incubation lasted 90 minutes. When no pre-treatments were required, the cells were kept in the DMEM for 30 minutes. Following incubation, the cells were centrifuged at 400g for 1 min, the solution aspirated, and cells re-suspended in HBSS exposure media.
Cell suspensions were centrifuged (400g for one minute), their solutions aspirated and they were re-suspended with 0.5 ml DMEM-H supplemented with 10u/ml dextranase (Sigma-Aldrich) for 10 minutes at RT. Cells were centrifuged again; their solution aspirated and they were re-suspended with 0.2 ml DMEM-H. PI (25 μg/ml) as a label for permeabilized cells and tryphan blue (0.01% w/v) as a fluorescence quenching agent for extracellular FITC (36) were added to each sample shortly before analysis
Flow cytometry analysis was carried out by FACSort (Becton @ Dickson, San Jose, Calif.), employing a 488-nm argon laser excitation. […] Ten thousand cells were examined for each sample and data were collected in the list mode. The analysis of flow cytometry data was performed using WINMDI 2.9 software (Joe Trotter, The Scripps Research Institute). For each sample the geometrical mean was calculated without including PI stained cells. Cell intensity was determined as fold of induction relative to cells' constitutive uptake.

For Dextran-FITC, the “dextran concentration relative to HT29 cells” value (COS 5-7 cells [1]) was 2 folds, the “dextran concentration relative to HT29 cells” value (Caco2/TC7 cells) was 2 folds and the “initial PIU rate of adherent cultures, folds lower than suspended cells” value (HaCaT cells) was 2.5 folds. For the same substance, the “Folds Uptake mean” value (COS 5-7 cells [2]; 60 mM HEPES in HBSS) was 51.98 folds, the “Folds Uptake mean” value (COS 5-7 cells [2]; 70 mM HEPES in HBSS) was 48.84 folds and the “Folds Uptake mean” value (COS 5-7 cells [2]; 80 mM HEPES in HBSS) was 14.86 folds. The “Folds Uptake mean” value (COS 5-7 cells [2]; 90 mM HEPES in HBSS) was 12.81 folds, the “Folds Uptake mean” value (COS 5-7 cells [2]; 100 mM HEPES in HBSS) was 10.06 folds and the “Folds Uptake mean” value (COS 5-7 cells [2]; 120 mM HEPES in HBSS) was 4.613 folds. The “Folds Uptake mean” value (COS 5-7 cells [2]; 150 mM HEPES in HBSS) was 3.106 folds, the “Folds Uptake Fold” value (COS 5-7 cells [2]; 10 V/cm, 80 mA/cm^2) was 1.62 folds and the “Folds Uptake Fold” value (COS 5-7 cells [2]; 13.3 V/cm, 120 mA/cm^2) was 2.449 folds. The “Folds Uptake Fold” value (COS 5-7 cells [2]; 16.6 V/cm, 160 mA/cm^2) was 6.017 folds, the “Folds Uptake Fold” value (COS 5-7 cells [2]; 20 V/cm, 80 mA/cm^2) was 1.824 folds and the “Folds Uptake Fold” value (COS 5-7 cells [2]; 20 V/cm, 120 mA/cm^2) was 3.015 folds. For the same substance, the “Folds Uptake Fold” value (COS 5-7 cells [2]; 20 V/cm, 160 mA/cm^2) was 5.476 folds, the “Folds Uptake Fold” value (COS 5-7 cells [2]; 20 V/cm, 200 mA/cm^2, 100 mM HEPES) was 9.134 folds and the “Folds Uptake Fold” value (COS 5-7 cells [2]; 26.6 V/cm, 200 mA/cm^2) was 11.73 folds. The “Folds Uptake Fold” value (COS 5-7 cells [2]; 33.3 V/cm, 200 mA/cm^2) was 10.49 folds, the “Folds Uptake Fold” value (COS 5-7 cells [2]; 46.6 V/cm, 80 mA/cm^2) was 1.694 folds and the “Folds Uptake Fold” value (COS 5-7 cells [2]; 46.6 V/cm, 160 mA/cm^2) was 6.34 folds. For the same substance, the “Folds Uptake Fold” value (COS 5-7 cells [2]; 66.6 V/cm, 120 mA/cm^2) was 3.447 folds and the “increase in cellular uptake in the anodic compartment” value (COS 5-7 cells [2]; train of electric pulses 20V/cm, 200 mA/cm^2, anodic compartment only, relative to constitutive uptake) was 10 fold.
